From patent US8022091B2, “Triazole derivative” (Taisho Pharmaceutical Co., Ltd., priority 2006, dated 2011)
Where “and” joins values, the source holds several entries; their conditions need not be identical. Equal values may be shown once.

What was measured:
[1] = target: T1, human Edg-1 (S1P1) (Homo sapiens, UniProt P21453); test: S1P1 binding assay: inhibition of [33P]-S1P binding to membrane fraction of HEK-293 cells transferred with the human Edg-1 (S1P1) gene; conditions: for inhibition at 10 µM: test compound at 10 μM, inhibition of [33P]-S1P binding to the membrane fraction of HEK-293 cells expressing human Edg-1 (S1P1); for IC50: [33P]-S1P 0.1 nM, human Edg-1 (S1P1) HEK-293 membrane fraction, 1 h at 30° C., read-out: IC50 (concentration at which binding in the absence of the test compound was inhibited by 50%)
T1 construct: expressed in transfected cells; host or cells: HEK-293
In short: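 Membranes from S1P1-transfected HEK-293 cells incubated 1 h at 30° C in pH 7.4 Tris buffer with fatty acid-free BSA, 0.1 nM [33P]-S1P and test compound (0.1% DMSO). Filter-bound radioactivity was counted; inhibition corrected for binding to untransfected-cell membranes, and IC50 derived from concentration series.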

T1 sequence (P21453 whole entry): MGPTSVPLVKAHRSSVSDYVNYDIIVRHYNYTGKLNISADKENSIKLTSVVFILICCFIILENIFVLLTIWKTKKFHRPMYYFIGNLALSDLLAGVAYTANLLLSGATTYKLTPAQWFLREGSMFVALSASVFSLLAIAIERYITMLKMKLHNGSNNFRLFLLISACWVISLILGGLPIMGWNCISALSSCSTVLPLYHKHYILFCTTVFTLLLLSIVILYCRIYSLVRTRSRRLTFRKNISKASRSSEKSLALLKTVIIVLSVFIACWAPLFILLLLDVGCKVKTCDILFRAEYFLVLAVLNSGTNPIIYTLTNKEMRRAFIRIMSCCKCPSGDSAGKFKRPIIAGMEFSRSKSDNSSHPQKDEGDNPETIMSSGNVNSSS

inhibition at 10 µM [1] [%] | melting point [°C] | IC50 [1] | SMILES
98.2 | 180 to 190 | – | CCn1c(Oc2ccccc2Cl)nnc1[C@@H](C)NS(=O)(=O)c1ccc(Cl)c(Cl)c1 [Compound 6]
99.4 | 159.5 to 161.5 | 0.0355 µM | CCn1c(Oc2ccccc2)nnc1[C@@H](C)NS(=O)(=O)c1ccc(Cl)c(Cl)c1 [Compound 7]
100 | 179 to 189.5 | 0.0185 µM | CCn1c(Oc2ccc(Cl)cc2)nnc1[C@@H](C)NS(=O)(=O)c1ccc(Cl)c(Cl)c1 [Compound 8]
100 | 145 to 148 | – | CCn1c(Oc2cccc(Cl)c2)nnc1[C@@H](C)NS(=O)(=O)c1ccc(Cl)c(Cl)c1 [Compound 9]
99.8 | 182.5 to 184.5 | 0.0175 µM | CCn1c(Oc2ccc(C)cc2)nnc1[C@@H](Cc1ccccc1)NS(=O)(=O)c1ccc(Cl)c(Cl)c1 [Compound 10]
98.5 | 155 to 160 | 0.0089 µM | CCn1c(Oc2ccc(OC)cc2)nnc1[C@@H](C)NS(=O)(=O)c1ccc(Cl)c(Cl)c1 [Compound 11]
99.2 | 190 to 192 | 0.02 µM | CCn1c(Oc2ccc(F)cc2)nnc1[C@@H](C)NS(=O)(=O)c1ccc(Cl)c(Cl)c1 [Compound 12, 3,4-Dichloro-N-{(R)-1-[4-ethyl-5-(4-fluorophenoxy)-4H-[1,2,4]-triazol-3-yl]ethyl}benzenesulfonamide]
102 | 152 to 156 | ≤ 0.035 µM | CCn1c(Oc2ccc(Cl)c(Cl)c2)nnc1[C@@H](C)NS(=O)(=O)c1ccc(Cl)c(Cl)c1 [Compound 13]
99.5 | 161 to 162.5 | 0.0064 µM | CCn1c(Oc2ccc(C)c(C)c2)nnc1[C@@H](C)NS(=O)(=O)c1ccc(Cl)c(Cl)c1 [Compound 14]
103 | 200 to 205 | 0.0325 µM | CCn1c(Oc2ccc(C3CCCCC3)cc2)nnc1[C@@H](C)NS(=O)(=O)c1ccc(Cl)c(Cl)c1 [Compound 15]
101 | 125 to 127 | ≤ 0.035 µM | CCn1c(Oc2ccc(OC)c(OC)c2)nnc1[C@@H](C)NS(=O)(=O)c1ccc(Cl)c(Cl)c1 [Compound 16]
95.4 | 129.5 to 131.5 | – | CCn1c(Oc2cc(OC)c(OC)c(OC)c2)nnc1[C@@H](C)NS(=O)(=O)c1ccc(Cl)c(Cl)c1 [Compound 17]
102 | 189 to 194 | ≤ 0.035 µM | CCn1c(Oc2cc(C)c(C)c(C)c2)nnc1[C@@H](C)NS(=O)(=O)c1ccc(Cl)c(Cl)c1 [Compound 18]
97.9 | 145 to 150 | – | CCn1c(Oc2cc(C)cc(C)c2)nnc1[C@@H](C)NS(=O)(=O)c1ccc(Cl)c(Cl)c1 [Compound 19]
97.4 | 118 to 120 | – | CCn1c(Oc2cc(OC)cc(OC)c2)nnc1[C@@H](C)NS(=O)(=O)c1ccc(Cl)c(Cl)c1 [Compound 20]
96.7 | 146.5 to 149.5 | ≤ 0.035 µM | CCCCOc1ccc(Oc2nnc([C@@H](C)NS(=O)(=O)c3ccc(Cl)c(Cl)c3)n2CC)cc1 [Compound 21]
95.4 | 163 to 167.5 | 0.014 µM | CCn1c(Oc2ccc(Oc3ccccc3)cc2)nnc1[C@@H](C)NS(=O)(=O)c1ccc(Cl)c(Cl)c1 [Compound 22]
96.7 | 173 to 176 | ≤ 0.035 µM | CCn1c(Oc2ccc(OCc3ccccc3)cc2)nnc1[C@@H](C)NS(=O)(=O)c1ccc(Cl)c(Cl)c1 [Compound 23]
101 | 172.5 to 173 | ≤ 0.01 µM | CCc1ccc(Oc2nnc([C@@H](C)NS(=O)(=O)c3ccc(Cl)c(Cl)c3)n2CC)cc1 [Compound 24]
97.5 | 155 to 156 | ≤ 0.035 µM | CCCc1ccc(Oc2nnc([C@@H](C)NS(=O)(=O)c3ccc(Cl)c(Cl)c3)n2CC)cc1 [Compound 25]
97.9 | 159 to 164 | ≤ 0.035 µM | CCn1c(Oc2ccc(Cl)c(C)c2)nnc1[C@@H](C)NS(=O)(=O)c1ccc(Cl)c(Cl)c1 [Compound 26]
100 | 163 to 168 | – | CCn1c(Oc2ccc(-n3cccc3)cc2)nnc1[C@@H](C)NS(=O)(=O)c1ccc(Cl)c(Cl)c1 [Compound 27]
104 | 165 to 170 | 0.0031 µM | CCn1c(Oc2cccc(N(C)C)c2)nnc1[C@@H](C)NS(=O)(=O)c1ccc(Cl)c(Cl)c1 [Compound 28]
101 | 177 to 178.5 | – | CCn1c(Oc2ccc(-c3ccccc3)cc2)nnc1[C@@H](C)NS(=O)(=O)c1ccc(Cl)c(Cl)c1 [Compound 29]

inhibition at 10 µM [1] [%] | melting point [°C] | IC50 [1] | SMILES
100 | 212 to 216 | – | CCn1c(Oc2cc(Cl)cc(Cl)c2)nnc1[C@@H](C)NS(=O)(=O)c1ccc(Cl)c(Cl)c1 [Compound 30]
101 | 143 to 146 | – | CCn1c(Oc2ccc(F)c(Cl)c2)nnc1[C@@H](C)NS(=O)(=O)c1ccc(Cl)c(Cl)c1 [Compound 31]
104 | 147 to 148 | ≤ 0.035 µM | CCCCc1ccc(Oc2nnc([C@@H](C)NS(=O)(=O)c3ccc(Cl)c(Cl)c3)n2CC)cc1 [Compound 32]
101 | 173.5 to 174.5 | – | CCn1c(Oc2ccc(OC(F)(F)F)cc2)nnc1[C@@H](C)NS(=O)(=O)c1ccc(Cl)c(Cl)c1 [Compound 33]
106 | 192.5 to 195.5 | 0.002 µM | CCn1c(Oc2cccc(N3CCOCC3)c2)nnc1[C@@H](C)NS(=O)(=O)c1ccc(Cl)c(Cl)c1 [Compound 34]
100 | 156 to 159 | ≤ 0.035 µM | CCn1c(Oc2ccc(OCCN(C)C)cc2)nnc1[C@@H](C)NS(=O)(=O)c1ccc(Cl)c(Cl)c1 [Compound 35]
102 | 125 to 130 | 0.0175 µM | CCn1c(Oc2ccc(OCCN3CCOCC3)cc2)nnc1[C@@H](C)NS(=O)(=O)c1ccc(Cl)c(Cl)c1 [Compound 36]
100 | 145 to 147 | ≤ 0.035 µM | CCn1c(Oc2ccc(F)c(C)c2)nnc1[C@@H](C)NS(=O)(=O)c1ccc(Cl)c(Cl)c1 [Compound 37]
105 | 148.5 to 150 | 0.0117 µM | COc1ccc(Oc2nnc([C@@H](C)NS(=O)(=O)c3ccc(Cl)c(Cl)c3)n2C2CC2)cc1 [Compound 38]
98.5 | 176 to 178 | ≤ 0.01 µM | CCn1c(Oc2ccc(C(C)C)cc2)nnc1[C@@H](C)NS(=O)(=O)c1ccc(Cl)c(Cl)c1 [Compound 39]
106 | 155.5 to 156.5 | ≤ 0.01 µM | CCn1c(Oc2cccc(C(C)C)c2)nnc1[C@@H](C)NS(=O)(=O)c1ccc(Cl)c(Cl)c1 [Compound 40]
92 | 166 to 170 | – | CCn1c(Oc2cccc3ccccc23)nnc1[C@@H](C)NS(=O)(=O)c1ccc(Cl)c(Cl)c1 [Compound 41]
102 | 176.5 to 179.5 | 0.022 µM | CCn1c(Oc2ccc3ccccc3c2)nnc1[C@@H](C)NS(=O)(=O)c1ccc(Cl)c(Cl)c1 [Compound 42]
99.8 | 182.5 to 185 | ≤ 0.035 µM | CCn1c(Oc2ccc(N(C)C)cc2)nnc1[C@@H](C)NS(=O)(=O)c1ccc(Cl)c(Cl)c1 [Compound 43]
100 | 140 to 145.5 | – | CCn1c(Oc2ccc(F)c(F)c2)nnc1[C@@H](C)NS(=O)(=O)c1ccc(Cl)c(Cl)c1 [Compound 44]
94.6 | 247 to 250 | ≤ 0.035 µM and 0.0285 µM | CCn1c(Oc2ccc3sc(C)nc3c2)nnc1[C@@H](C)NS(=O)(=O)c1ccc(Cl)c(Cl)c1 [Compound 46]
102 | 191 to 192 | – | CCn1c(Oc2ccc(N3CCOCC3)cc2)nnc1[C@@H](C)NS(=O)(=O)c1ccc(Cl)c(Cl)c1 [Compound 47]
96.7 | 195.5 to 196.5 | – | CCn1c(Oc2ccc(N3CCCCC3)cc2)nnc1[C@@H](C)NS(=O)(=O)c1ccc(Cl)c(Cl)c1 [Compound 48]
102 | 198 to 199 | 0.006 µM | CCn1c(Oc2ccc(N3CCCC3)cc2)nnc1[C@@H](C)NS(=O)(=O)c1ccc(Cl)c(Cl)c1 [Compound 49]
92.9 | 129 to 130 | – | CCn1c(Oc2cccnc2)nnc1[C@@H](C)NS(=O)(=O)c1ccc(Cl)c(Cl)c1 [Compound 50]
99.9 | 148.5 to 150.5 | – | CCn1c(Oc2ccc(C)nc2)nnc1[C@@H](C)NS(=O)(=O)c1ccc(Cl)c(Cl)c1 [Compound 51]
100 | 203 to 205 | – | CCn1c(Oc2ccc(N3CCN(C)CC3)cc2)nnc1[C@@H](C)NS(=O)(=O)c1ccc(Cl)c(Cl)c1 [Compound 52]
86.8 | 172 to 173 | – | CCn1c(Oc2ccccn2)nnc1[C@@H](C)NS(=O)(=O)c1ccc(Cl)c(Cl)c1 [Compound 53]
